Measured values as given in US10961234B2, “Oxazole derivatives for use in the treatment of cancer” (LIFEARC, priority 2016, dated 2021).

Key:
[1] = system: LM2 and MDA-MB-231 breast cancer cell lines; assay: PAICS 2D cell proliferation assay; assay type: cell-based; settings: Homo sapiens; 72 hours incubation; cell line (LM2 or MDA-MB-231) not given
Protocol: Frozen cryovial stocks of LM2 and MDA-MB-231 breast cancer cell lines were thawed and cultured in 4.5 g/L glucose DMEM (31966-047, Invitrogen) supplemented with 10% Fetal Bovine Serum (10500-064, Invitrogen) until confluent in a T175 flask. Cells were incubated at 37° C. with 5% CO2 in a humidified incubator.
Cells were collected from T175 flasks by washing with PBS (10010-056, Invitrogen) and dissociated using Accutase (A6964, Sigma Aldrich). This was followed by centrifuging (1200 rpm, 5 min) and resuspending the cells in 10 ml of media containing 1% penicillin/streptomycin (15140-122, Invitrogen). Cells were counted by trypan blue exclusion method using an automated cell counter (Cellometer) and diluted to a concentration of 40,000/ml. 1000 cells were then seeded into 384-well white-walled plates (Corning, 3707) in a volume of 25 μl. Plates were incubated overnight at 37° C. with 5% CO2.
After 24 hours, PAICS compounds were added onto the assay plates using an HP D300 Digital Dispenser (Hewlett Packard). 10 mM stocks were used and dispensed as a 10 point concentration response curve (CRC) ½ log dilution series with a final top concentration of 100 μM. Controls were added onto each plate: positive controls included Staurosporine CRC (100 μM stock dispensed as a 10 point CRC ½ log dilution series with a final top concentration of 1 μM) and PAICS compound MRT00211919 (10 mM stock dispensed as a 10 point CRC ½ log dilution series with a final top concentration of 100 μM); a high control of Staurosporine (0.1 μM (LM2), 0.316 μM (MDA-MB-231) FAC) and a low control of media containing 1% DMSO. A final concentration of 1% DMSO was then added across the plates for normalisation. Following compound addition, assay plates were incubated for 72 hours at 37° C. with 5% CO2.
After 72 h incubation, dead and viable cells were measured in each assay plate. Cytotoxicity was assessed through fluorescent DNA staining using the CellTox™ Green Cytotoxicity Assay kit (G8743, Promega) following the manufacturer's multiplexing protocol. Impaired cell membrane integrity results in the access of dye to stain DNA allowing quantification of dead cells. Cell viability was determined following ATP quantification using the CellTiter-Glo® Luminescent Cell Viability Assay kit (G7572, Promega) following the manufacturer's protocol. ATP released from lysed cells allowed for the generation of a signal proportional to the number of cells present in the well. All endpoint reads were performed using the PheraSTAR Plus (BMG Labtech). Data is expressed as % viable cells and % dead cells against controls (mean±SEM of duplicate curves).

WT full length PAICS = target: T1, WT full length PAICS (Homo sapiens, UniProt P22234); assay: Biochemical assay to measure PAICS activity (Transcreener ADP2 FI, SAICAR synthetase reaction); settings: PAICS 2.5 nM, 30 mins pre-incubation, ADP detection by fluorescence intensity
T1 construct: 5 μl WT full length PAICS (final assay concentration, fac, 2.5 nM) in basic buffer
T1 sequence (P22234 1-425): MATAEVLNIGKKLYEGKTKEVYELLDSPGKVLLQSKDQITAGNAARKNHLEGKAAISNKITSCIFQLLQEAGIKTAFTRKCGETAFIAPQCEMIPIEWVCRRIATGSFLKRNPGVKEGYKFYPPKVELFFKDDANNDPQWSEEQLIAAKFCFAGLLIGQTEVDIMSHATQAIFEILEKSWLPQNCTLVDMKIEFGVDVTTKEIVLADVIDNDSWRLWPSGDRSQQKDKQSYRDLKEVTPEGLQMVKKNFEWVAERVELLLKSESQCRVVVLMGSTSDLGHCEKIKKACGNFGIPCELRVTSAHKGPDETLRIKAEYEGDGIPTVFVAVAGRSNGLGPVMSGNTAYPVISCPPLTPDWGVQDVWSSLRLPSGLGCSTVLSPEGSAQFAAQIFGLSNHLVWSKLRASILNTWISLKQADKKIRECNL
Text: The biochemical assay was used to measure PAICS SAICAR synthetase-mediated conversion of CAIR, aspartic acid and ATP to SAICAR, ADP and inorganic phosphate (PI), post-AIR/CAIR equilibration (see FIG. 3). This was achieved by detecting the ADP generated during the reaction, using Bellbrook Lab's Transcreener ADP^2 FI assay. An increase in the fluorescence intensity is directly proportional to the amount of PAICS activity.
The Transcreener ADP^2 FI assay is a homogeneous competitive displacement fluorescence intensity assay which uses direct immunodetection of ADP. Displacement of the tracer by ADP causes an increase in the fluorescence at excitation 590 nm and emission 617 nm (FIG. 3).
5 μl WT full length PAICS (final assay concentration, fac, 2.5 nM) in basic buffer, added to black, non-binding, 384-well plates (Corning #3575), columns 1 to 22.5 μl basic buffer was added to columns 23+24 (negative control). PAICS stock at 31.9 μM from the PI's lab (Steve Firestine). Basic buffer contained 50 mM Tris-HCl pH8 and 0.5 mM EDTA, fac.
1 μl compound in 100% DMSO added per well, or 1 μl 100% DMSO to positive controls (columns 1+2) and negative controls (columns 23+24). Final assay top concentration of compound either 1 mM or 30 μM, serially diluted with half-log dilutions across the plate in duplicate (one 10-point concentration response curve across wells 3 to 12, another across 13 to 22). Compounds pre-incubated with PAICS enzyme for 30 mins at RT.
2 μl CAIR added (fac 10 μM) in basic buffer plus 25 mM MgCl2 and 50 mM KHCO3 fac to all wells. CAIR stock 50 mM from Steve Firestine's lab. 1 hr RT incubation for AIR-CAIR equilibration. NB: ˜50% CAIR is decarboxylated during equilibration therefore 5 μM remains for the synthetase reaction.
2 μl ATP/aspartic acid added (fac 30 μM/180 μM) in reaction buffer to all wells. 30 mins RT incubation for appropriate level of ATP turnover. Reaction buffer contained basic buffer plus 10 mM DTT, 0.01% BSA and 0.01% Brij 35, fac.
10 μl ADP detection reagent added to all wells (as per instructions, Transcreener ADP^2 FI kit, BellBrook Labs #3013-10K). Incubation for 1 h at RT to allow antibody equilibration. Fluorescence intensity determined using a Tecan Safire2 (excitation at 590 nm, emission at 617 nm).

| EC50 [1] | IC50 (WT full length PAICS) | SMILES |
| --- | --- | --- |
| 250 to 500 nM | 25 to 100 nM | CN1CCN(Cc2ccc(-c3ccc(Cl)c(NC(=O)c4coc(N)n4)c3)cn2)CC1 [Example 83, 2-Amino-N-(2-chloro-5-{6-[(4-methylpiperazin-1-yl)methyl]pyridin-3-yl}phenyl)-1,3-oxazole-4-carboxamide] |
| < 100 nM | < 10 nM | Nc1nc(C(=O)Nc2cc(-c3nc(CN4CCNCC4)cs3)ccc2Cl)co1 [Example 89, 2-Amino-N-{2-chloro-5-[4-(piperazin-1-ylmethyl)-1,3-thiazol-2-yl]phenyl}-1,3-oxazole-4-carboxamide] |
| 250 to 500 nM | 10 to 25 nM | Nc1nc(C(=O)Nc2cc(-c3ccc(OC4CCNCC4)nc3)ccc2Cl)co1 [Example 84, 2-Amino-N-{2-chloro-5-[6-(piperidin-4-yloxy)pyridin-3-yl]phenyl}-1,3-oxazole-4-carboxamide] |
| 100 to 250 nM | – | CN(C)C1CCN(Cc2csc(-c3ccc(Cl)c(NC(=O)c4coc(N)n4)c3)n2)CC1 [Example 97, 2-Amino-N-[2-chloro-5-(4-{[4-(dimethylamino)piperidin-1-yl]methyl}-1,3-thiazol-2-yl)phenyl]-1,3-oxazole-4-carboxamide] |
| 100 to 250 nM | – | CSc1ccc(-c2cnc(OCCCN(C)C)s2)cc1NC(=O)c1coc(N)n1 [Example 99, 2-Amino-N-[5-{2-[3-(dimethylamino)propoxy]-1,3-thiazol-5-yl}-2-(methylsulfanyl)phenyl]-1,3-oxazole-4-carboxamide] |
| < 100 nM | – | CSc1ccc(-c2nc(CN3CCNCC3)cs2)cc1NC(=O)c1coc(N)n1 [Example 100, 2-Amino-N-{2-(methylsulfanyl)-5-[4-(piperazin-1-ylmethyl)-1,3-thiazol-2-yl]phenyl}-1,3-oxazole-4-carboxamide] |
| < 100 nM | – | CN(C)CCCc1ncc(-c2ccc(Cl)c(NC(=O)c3coc(N)n3)c2)s1 [Example 85, 2-Amino-N-(2-chloro-5-{2-[3-(dimethylamino)propyl]-1,3-thiazol-5-yl}phenyl)-1,3-oxazole-4-carboxamide] |
| < 100 nM | – | CNC1CCCN(Cc2csc(-c3ccc(Cl)c(NC(=O)c4coc(N)n4)c3)n2)C1 (stereo not drawn) [Example 96, 2-Amino-N-[2-chloro-5-(4-{[3-(methylamino)piperidin-1-yl]methyl}-1,3-thiazol-2-yl)phenyl]-1,3-oxazole-4-carboxamide] |
| < 100 nM | – | CCN(CC)CCCOc1ncc(-c2ccc(Cl)c(NC(=O)c3coc(N)n3)c2)s1 [Example 98, 2-Amino-N-(2-chloro-5-{2-[3-(diethylamino)propoxy]-1,3-thiazol-5-yl}phenyl)-1,3-oxazole-4-carboxamide] |
| 100 to 250 nM | – | CN1CCN(c2ncc(-c3ccc(Cl)c(NC(=O)c4coc(N)n4)c3)s2)CC1 [Example 101, 2-Amino-N-{2-chloro-5-[2-(4-methylpiperazin-1-yl)-1,3-thiazol-5-yl]phenyl}-1,3-oxazole-4-carboxamide] |

The next lines start with the compound.

| SMILES | EC50 [1] | IC50 (WT full length PAICS) |
| --- | --- | --- |
| CNCCn1cc(-c2ccc(Cl)c(NC(=O)c3coc(N)n3)c2)cn1 [Example 50, 2-Amino-N-(2-chloro-5-(1-(2-(methylamino)ethyl)-1H-pyrazol-4-yl)phenyl)oxazole-4-carboxamide] | 100 to 250 nM | 10 to 25 nM |
| CN(C)CCCn1cc(-c2ccc(Cl)c(NC(=O)c3coc(N)n3)c2)cn1 [Example 43, 2-Amino-N-(2-chloro-5-{1-[3-(dimethylamino)propyl]-1H-pyrazol-4-yl}phenyl)-1,3-oxazole-4-carboxamide] | 100 to 250 nM | 25 to 100 nM |
| CN(C)CCNC(=O)Cn1cc(-c2ccc(Cl)c(NC(=O)c3coc(N)n3)c2)cn1 [Example 58, 2-Amino-N-{2-chloro-5-[1-(2-{[2-(dimethylamino)ethyl]amino}-2-oxoethyl)-1H-pyrazol-4-yl]phenyl}-1,3-oxazole-4-carboxamide] | 250 to 500 nM | 25 to 100 nM |
| Cc1nn(C2CCNCC2)cc1-c1ccc(Cl)c(NC(=O)c2coc(N)n2)c1 [Example 55, 2-Amino-N-(2-chloro-5-(3-methyl-1-(piperidin-4-yl)-1H-pyrazol-4-yl)phenyl)oxazole-4-carboxamide] | 100 to 250 nM | 10 to 25 nM |
| Nc1nc(C(=O)Nc2cc(-c3cnn(CCCN4CCNCC4)c3)ccc2Cl)co1 [Example 51, 2-Amino-N-(2-chloro-5-(1-(3-(piperazin-1-yl)propyl)-1H-pyrazol-4-yl)phenyl)oxazole-4-carboxamide] | 100 to 250 nM | < 10 nM |
| Nc1nc(C(=O)Nc2cc(-c3ccc(CN4CCNCC4)cc3)ccc2Cl)co1 [Example 38, 2-Amino-N-[4-chloro-4′-(piperazin-1-ylmethyl)biphenyl-3-yl]-1,3-oxazole-4-carboxamide] | 250 to 500 nM | 10 to 25 nM |
| CN(C)CCOc1ncc(-c2ccc(Cl)c(NC(=O)c3coc(N)n3)c2)cn1 [Example 74, 2-Amino-N-(2-chloro-5-(2-(2-(dimethylamino)ethoxy)pyrimidin-5-yl)phenyl)oxazole-4-carboxamide] | 250 to 500 nM | 25 to 100 nM |
| Nc1nc(C(=O)Nc2cc(-c3ccc(OCC4CCCNC4)nc3)ccc2Cl)co1 (stereo not drawn) [Example 69, 2-Amino-N-(2-chloro-5-(6-(piperidin-3-ylmethoxy)pyridin-3-yl)phenyl)oxazole-4-carboxamide] | 250 to 500 nM | 10 to 25 nM |
| CN1CCN(CCCn2cc(-c3ccc(Cl)c(NC(=O)c4coc(N)n4)c3)cn2)CC1 [Example 52, 2-Amino-N-(2-chloro-5-(1-(3-(4-methylpiperazin-1-yl)propyl)-1H-pyrazol-4-yl)phenyl)oxazole-4-carboxamide] | 100 to 250 nM | 10 to 25 nM |
| CN1CC(n2cc(-c3ccc(Cl)c(NC(=O)c4coc(N)n4)c3)cn2)C1 [Example 45, 2-Amino-N-{2-chloro-5-[1-(1-methylazetidin-3-yl)-1H-pyrazol-4-yl]phenyl}-1,3-oxazole-4-carboxamide] | 100 to 250 nM | > 100 nM |
